The results in this text go back to ChEMBL document CHEMBL5143512, “Synthesis and in vitro antitrypanosomal evaluation of novel 6-heteroarylidene-substituted quinolone derivatives” (Eur J Med Chem, 2022).

Series [1] has as its system Trypanosoma brucei brucei. Kind of series: Antitrypanosomal activity against Trypanosoma brucei brucei 427 trypomastigotes assessed as reduction in parasite growth incubated for 48 hrs by resazurin dye based fluorescence assay. It is filed as functional, organism-based. To be noted: Trypanosoma brucei, 427, 48 h.
The nature of series [2]: Cytotoxicity against African green monkey Vero cells assessed as cell viability at 5 uM incubated for 48 hrs by MTT based colorimetric assay. To be noted: chlorocebus sabaeus, read-out: Activity. The format is toxicity.
The nature of series [3]: Cytotoxicity against human hTERT-BJ cells assessed as cell viability at 5 uM incubated for 48 hrs by MTT based colorimetric assay. It is filed as toxicity. To be noted: read-out: Activity.
Series [4] is described as follows: Cytotoxicity against human hTERT-BJ cells assessed as cell viability at 10 uM incubated for 48 hrs by MTT based colorimetric assay. The format is toxicity. To be noted: read-out: Activity.
Series [5] can be described thus: Selectivity index, ratio of CC50 for African green monkey Vero cells to IC50 for Antitrypanosomal activity against Trypanosoma brucei brucei 427 trypomastigotes. It is filed as toxicity. To be noted: read-out: Ratio CC50/IC50.
Series [6] deals with hTERT-BJ. The series can be described thus: Cytotoxicity against human hTERT-BJ cells assessed as reduction in cell viability at 10 uM incubated for 48 hrs by MTT based colorimetric assay. The format is toxicity.
Series [7] is described as follows: Cytotoxicity against human hTERT-BJ cells assessed as cell viability at 1 uM incubated for 48 hrs by MTT based colorimetric assay. It is filed as toxicity. To be noted: read-out: Activity.
Series [8] is described as follows: Cytotoxicity against African green monkey Vero cells assessed as cell viability at 1 uM incubated for 48 hrs by MTT based colorimetric assay. The format is toxicity. To be noted: chlorocebus sabaeus, read-out: Activity.
Series [9] in a line: Cytotoxicity against African green monkey Vero cells assessed as cell viability at 10 uM incubated for 48 hrs by MTT based colorimetric assay. The format is toxicity. To be noted: chlorocebus sabaeus, read-out: Activity.
Series [10] is described as follows: Cytotoxicity against African green monkey Vero cells assessed as reduction in cell viability incubated for 48 hrs by MTT based colorimetric assay. It is filed as toxicity. To be noted: chlorocebus sabaeus.

As to `O=C1/C(=C/c2ccc([N+](=O)[O-])o2)COc2ccccc21`, the IC50 in series [1] stood at 510 nM. Same read-out and setting: the value for `CCOC(=O)c1cn(CC)c2ccc(C(=O)/C=C/c3ccc([N+](=O)[O-])o3)cc2c1=O` was 600 nM. As for `COCCNC(=O)c1c[nH]c2ccc(C(=O)/C=C/c3ccc([N+](=O)[O-])o3)cc2c1=O`, the IC50 in [1] was 3430 nM.

Regarding `CCOC(=O)c1cn(CC)c2ccc(C(=O)/C=C/c3ccc(Br)o3)cc2c1=O`, the IC50 in [1] was found to be 1310 nM.

Turning to `CCOC(=O)c1cn(CC(N)=O)c2ccc(C(=O)/C=C/c3ccc([N+](=O)[O-])o3)cc2c1=O`, the half-inhibitory concentration (IC50) in [1] was found to be 15300 nM. The same measure, in the same setting: in the case of `CCOC(=O)c1cn(CCO)c2ccc(C(=O)/C=C/c3ccc([N+](=O)[O-])o3)cc2c1=O` it was 2090 nM; in that of `O=C1/C(=C/c2ccc([N+](=O)[O-])o2)CCc2ccccc21`, 360 nM. On the same count and under the same terms, in the case of `CCOC(=O)c1cn(CC)c2ccc(C(=O)/C=C/c3ccc([N+](=O)[O-])s3)cc2c1=O` it was 970 nM. Turning to `Cc1cccc(Cn2cc(C(=O)NCCN3CCNCC3)c(=O)c3cc(C(=O)/C=C/c4ccc([N+](=O)[O-])o4)ccc32)c1`, the IC50 in series [1] stood at 2410 nM. `COCCNC(=O)c1cn(Cc2ccc(C)cc2)c2ccc(C(=O)/C=C/c3ccc([N+](=O)[O-])o3)cc2c1=O`: the half-inhibitory concentration (IC50) in [1] was 120 nM.

As for `Cc1ccc(Cn2cc(C(=O)NCCOCCO)c(=O)c3cc(C(=O)/C=C/c4ccc([N+](=O)[O-])o4)ccc32)cc1`, in series [1], the half-maximal inhibitory concentration (IC50) was 80 nM. The viability at 48 h, 5 µM is 20% in series [2] and 88% in series [3]. The viability at 48 h, 10 µM in series [4] was 66%; in [9], 6%. Further, the selectivity ratio in series [5] came to 42.5. Moreover, in series [6], the Activity is below 25%. In addition, the viability at 48 h, 1 µM worked out at 118% in [7] and 105% in series [8]. In addition, in series [10], the half-maximal cytotoxic concentration (CC50) at 48 h came to 3400 nM. With `CCOC(=O)c1cn(CCO)c2ccc(C(=O)/C=C/c3ccc([N+](=O)[O-])s3)cc2c1=O`, the IC50 in series [1] was determined as 380 nM. As for `COCCNC(=O)c1cn(Cc2ccccc2)c2ccc(C(=O)/C=C/c3ccc([N+](=O)[O-])o3)cc2c1=O`, in series [1], the IC50 is 470 nM. On the same count and under the same terms, the value for `CCOC(=O)c1cn(Cc2ccccc2)c2ccc(C(=O)/C=C/c3ccc([N+](=O)[O-])o3)cc2c1=O` was 500 nM; that for `O=C(/C=C/c1ccc([N+](=O)[O-])o1)c1ccc2c(c1)c(=O)c(C(=O)NCCOCCO)cn2Cc1ccccc1` was 280 nM; that for `CC(=O)c1ccc2c(c1)c(=O)c(C(=O)NCCOCCO)cn2Cc1ccc(Br)cc1` was 7140 nM. On the same count and under the same terms, in the case of `N=C(N)c1ccc(OCCCCCOc2ccc(C(=N)N)cc2)cc1` [PENTAMIDINE] it was 10 nM.
